Data set [1] has as its system Mus musculus. Briefly: In vivo toxic dose of injected compound at a dose of 5 to 100 ug at which 50% of mice died within 1 hr of treatment. Type of data set: ADME, organism-based.
The subject of data set [2] is Mus musculus. Briefly: In vivo behavioral response evoked when a dose of 100 microg injected into mice under light ether anesthesia; No response. It is filed as functional, organism-based.
For data set [3], the system named is Mus musculus. Description: In vivo toxic dose of injected compound at a dose of 10 to 100 ug at which 50% of mice died within 1 hr of treatment. Type of data set: ADME, organism-based.

Activity calls are given as the source filed them. No cut-off for these calls is given here.

On to `NCC(O)c1cc(O)c2c(c1)SCC(C(=O)O)N2` (stereo unspecified), for which, in the data set with Mus musculus [1], the LD50 was 17.8 µg. Turning to `NCC(O)c1cc(SCC(N)C(=O)O)c(O)c2c1SCC(C(=O)O)N2` (stereo unspecified), the outcome in the data set with Mus musculus [2] was inactive. For the compound `NCC(O)c1ccc(O)c2c1SCC(C(=O)O)N2` (stereo unspecified), the LD50 in the data set with Mus musculus [3] is 23.4 µg.

On to `NCC(O)c1cc(SCC(N)C(=O)O)c(O)c(O)c1SCC(N)C(=O)O` (stereo unspecified), for which, in the data set with Mus musculus [2], the outcome was inactive. On the same count and under the same terms, with `NCC(O)c1cc(O)c(O)c(SCC(N)C(=O)O)c1` (stereo unspecified) the entry was “inactive”; with `NCC(O)c1c2c(c(O)c(SCC(N)C(=O)O)c1SCC(N)C(=O)O)NC(C(=O)O)CS2` (stereo unspecified), “inactive”.

(Values after ChEMBL document CHEMBL1129313, “Oxidation chemistry of (-)-norepinephrine in the presence of L-cysteine” (J Med Chem, 1996).)
